SMILES strings stand for the structures. Values after ≈ are worked out from the molar mass of the structure shown. Read-outs that look alike come from different tables or passages of the source.

The subject of data set [1] is bacteria. As to the kind of experiment: disc diffusion test (method of Bauer et al.), antibacterial potency relative to thienamycin. Format: cell-based. The note with it: ratio to thienamycin (= 1.0) of geometrical average MIC, larger value = higher activity. On the procedure: The antibacterial activities of the compounds of the present invention described in the Examples, as representative examples of the compound of the present invention, were measured by a disc diffusion test by the method of Bauer et al. (Amer. J. Clin. Pathol., vol. 45, p. 493 (1966)). Thienamycin or imipenem was used as the internal standard.
MIC of each test compound was calculated from the diameter of the inhibition ring formed by the disc containing the test compound by using the calculation formula reported by Humphrey and Lightbown (J. Gen. Microbiol., vol. 7, p. 129 (1952)). For each microorganism, a geometrical average of MIC was obtained, and the activity ratio to thienamycin was calculated.
The antibacterial activities are represented by the ratio to thienamycin (= 1.0), whereby the larger the numerical value, the higher the activities.

The target in data set [2] is T1, DHP-I (Homo sapiens, UniProt P16444).
T1 sequence (P16444 17-385): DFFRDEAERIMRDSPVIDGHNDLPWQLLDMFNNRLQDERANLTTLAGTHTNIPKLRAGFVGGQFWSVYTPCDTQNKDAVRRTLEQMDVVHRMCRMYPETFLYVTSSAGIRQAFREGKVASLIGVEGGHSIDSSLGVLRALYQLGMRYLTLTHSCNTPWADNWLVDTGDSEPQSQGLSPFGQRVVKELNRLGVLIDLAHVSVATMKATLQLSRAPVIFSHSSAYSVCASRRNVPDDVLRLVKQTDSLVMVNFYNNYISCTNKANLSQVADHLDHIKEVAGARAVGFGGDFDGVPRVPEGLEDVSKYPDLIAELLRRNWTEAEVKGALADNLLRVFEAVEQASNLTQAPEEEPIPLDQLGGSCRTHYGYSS
Briefly: DHP-I susceptibility (method by Kropp et al.), ratio to imipenem. Format: in vitro ADME. An excerpt: The DHP-I susceptibility was quantitatively analyzed by the method by Kropp et al., Antimicrob. Agents Chemother., vol. 22, p.

The subject of data set [3] is bacteria. Briefly: in vitro antibacterial activities, agar plate dilution method (MIC). In kind it is cell-based. The note with it: Mueller Hinton agar, inoculum 10⁶ CFU/mℓ, 37°C for 16 hours. On the procedure:
One platinum loopful of each test microorganism incubated overnight in Mueller Hinton broth, was inoculated to Mueller Hinton agar (inoculum size: 10⁶ CFU/mℓ). Such culture media contained antibacterial agents in various concentrations. After incubation at 37°C for 16 hours, the minimum inhibitory concentrations (MIC: µg/mℓ) were measured.

Setting [4] is: Pseudomonas aeruginosa, 16 h, P. aeruginosa MB 5002, read-out: Minimum Inhibitory Concentration(MIC).
Setting [5] is: Pseudomonas aeruginosa, 16 h, P. aeruginosa MB 5178, read-out: Minimum Inhibitory Concentration(MIC).
Where [6] appears, read: Staphylococcus aureus, 209P / NIHJJC1, 16 h, S. aureus 209P NIHJ JC1, read-out: Minimum Inhibitory Concentration(MIC).
The mark [7] stands for this setting: Staphylococcus aureus, 16 h, S. aureus BB 5939 (β-lactamase producing microorganism), read-out: Minimum Inhibitory Concentration(MIC).
[8] abbreviates: Staphylococcus aureus, 16 h, S. aureus MB 4970, read-out: Minimum Inhibitory Concentration(MIC).
Where [9] appears, read: ratio to imipenem (=1.0), smaller value = higher stability.

Consider `C[C@@H](O)[C@H]1C(=O)N2C(C(=O)O)=C(S[C@@H]3CN[C@H](/C=C/C(N)=O)C3)[C@H](C)[C@H]12` [BO-2171, (1R,5S,6S)-2-[(2S,4S)-2-[(E)-2-(aminocarbonyl)vinyl]pyrrolidin-4-ylthio]-6-[(R)-1-hydroxyethyl]-1-methyl-1-carbapen-2-em-3-carboxylic acid, reference compound], for which the entries for the “Relative antibacterial potency to thienamycin” value (“Relative antibacterial potency” for short) in data set [1] (Meth-R S. aureus) and in data set [1] (THM-R P.aeruginosa) were 7.68 and 3.28, respectively. Besides, the DHP-I susceptibility in data set [2] is listed as 0.3. The MIC in data set [3] (setting [4]) came out at 6.25 µg/mL (≈ 16.4 µM); in data set [3] (setting [5]), 12.5 µg/mL (≈ 32.8 µM); in data set [3] (setting [6]), 0.025 µg/mL (≈ 0.0655 µM); in data set [3] (setting [7]), 6.25 µg/mL (≈ 16.4 µM); in data set [3] (setting [8]), 0.025 µg/mL (≈ 0.0655 µM).
For the molecule `C[C@@H](O)[C@H]1C(=O)N2C(C(=O)O)=C(S[C@@H]3CN[C@H](/C=C\CN)C3)[C@H](C)[C@H]12` [Example 2, (1R,5S,6S)-2-[(2S,4S)-2-[(Z)-3-amino-1-propenyl]pyrrolidin-4-ylthio]-6-[(R)-1-hydroxyethyl]-1-methyl-1-carbapen-2-em-3-carboxylic acid], the entries for the “Relative antibacterial potency” value in data set [1] (Meth-R S. aureus) and in data set [1] (THM-R P.aeruginosa) were 12.9 and 15.2, respectively. For the same molecule, the DHP-I susceptibility in data set [2] is given as less than 0.05. Further, the MIC was 0.78 µg/mL (≈ 2.12 µM) in data set [3] (setting [4]); 1.56 µg/mL (≈ 4.25 µM) in data set [3] (setting [5]); less than 0.006 µg/mL in data set [3] (setting [6]); 1.56 µg/mL (≈ 4.25 µM) in data set [3] (setting [7]); 0.012 µg/mL (≈ 0.0327 µM) in data set [3] (setting [8]).
In the case of `C/C(=C/[C@@H]1C[C@H](SC2=C(C(=O)O)N3C(=O)[C@H]([C@@H](C)O)[C@H]3[C@H]2C)CN1)CN.Cl` [Example 7, (1R,5S,6S)-2-[(2S,4S)-2-[(Z)-3-amino-2-methyl-1-propenyl]pyrrolidin-4-ylthio]-6-[(R)-1-hydroxyethyl]-1-methyl-1-carbapen-2-em-3-carboxylic acid hydrochloride], the “Relative antibacterial potency” value in data set [1] (Meth-R S. aureus) worked out at 13.5; in data set [1] (THM-R P.aeruginosa), 31.3. In addition, in data set [2] (setting [9]), the DHP-I susceptibility is reported as less than 0.05. Also, the MIC was 0.78 µg/mL in data set [3] (setting [4]); 1.56 µg/mL in data set [3] (setting [5]); less than 0.006 µg/mL in data set [3] (setting [6]); 1.56 µg/mL in data set [3] (setting [7]); less than 0.006 µg/mL in data set [3] (setting [8]).
For `CNC/C(C)=C\[C@@H]1C[C@H](SC2=C(C(=O)O)N3C(=O)[C@H]([C@@H](C)O)[C@H]3[C@H]2C)CN1.Cl` [Example 9, (1R,5S,6S)-6-[(R)-1-hydroxyethyl]-2-[(2S,4S)-2-[(Z)-3-(N-methylamino)-2-methyl-1-propenyl]pyrrolidin-4-ylthio]-1-methyl-1-carbapen-2-em-3-carboxylic acid hydrochloride], the results for the “Relative antibacterial potency” value in data set [1] (Meth-R S. aureus) and in data set [1] (THM-R P.aeruginosa) were 19.7 and 13.4, respectively. Further, in data set [2] (setting [9]), the DHP-I susceptibility was 0.10. Also, the MIC in data set [3] (setting [4]) is 0.78 µg/mL; in data set [3] (setting [5]), 3.13 µg/mL; in data set [3] (setting [6]), less than 0.006 µg/mL; in data set [3] (setting [7]), 1.56 µg/mL; in data set [3] (setting [8]), less than 0.006 µg/mL.
Take `C[C@@H](O)[C@H]1C(=O)N2C(C(=O)O)=C(SCCN=CN)C[C@H]12` [imipenem, (5R,6S,8R)-3-[[2-(formimidoylamino)ethyl]thio]-6-(1-hydroxyethyl)-7-oxo-1-azabicyclo[3.2.0]hept-2-en-2-carboxylic acid monohydrate, reference compound]: the “Relative antibacterial potency” value in data set [1] (Meth-R S. aureus) was determined as 2.57; in data set [1] (THM-R P.aeruginosa), 2.0. Further, the DHP-I susceptibility in data set [2] (setting [9]) is given as 1.0. In addition, the “DHP-I susceptibility, ratio to imipenem” value in data set [2] (the smaller the numerical value, the higher the stability) came out at 1.0. The MIC is 1.56 µg/mL in data set [3] (Pseudomonas aeruginosa, 16 h, read-out: Minimum Inhibitory Concentration(MIC), P. aeruginosa MB 5002); 25 µg/mL in data set [3] (Pseudomonas aeruginosa, 16 h, read-out: Minimum Inhibitory Concentration(MIC), P. aeruginosa MB 5178); less than 0.006 µg/mL in data set [3] (Staphylococcus aureus, 209P / NIHJJC1, 16 h, read-out: Minimum Inhibitory Concentration(MIC), S. aureus 209P NIHJ JC1); 6.25 µg/mL in data set [3] (Staphylococcus aureus, 16 h, read-out: Minimum Inhibitory Concentration(MIC), S. aureus BB 5939 (β-lactamase producing microorganism)); 0.012 µg/mL in data set [3] (Staphylococcus aureus, 16 h, read-out: Minimum Inhibitory Concentration(MIC), S. aureus MB 4970).

These data come from patent EP0522504A1, “2-(2-substituted pyrrolidinylthio)-carbapenem derivatives” (Banyu Pharmaceutical Co., Ltd., priority 1991, dated 1993).
